Tests used:
Plasmopara viticola = assay: Preventive foliar spray test on grape inoculated with Plasmopara viticola zoosporangia (Test Examples 3 and 4); assay type: in vivo; details: grape (variety: Berry A), flowable diluted to 200 ppm, foliar spray before inoculation, observed after 1 day at 23° C. plus 6 days in green house; Test Example 4
Procedure: Additionally, the control effect was evaluated by visually observing the area of a lesion on a sample plant in investigation and comparing the area of a lesion on a non-treatment plant and the area of a lesion on a treated plant with the compound of the present invention.
Sand loam was compacted in a plastic pot, and a grape (variety: Berry A) was seeded and grown in a green house for 40 days. The compounds of the present invention (I-1), (I-2), (I-6) to (I-12), (II-1), (III-1) and (IV-1) were formulated to flowable according to Formulation Example 6, then, diluted with water to provide given concentration of 200 ppm, and these diluted solutions were sprayed onto stems and leaves so as to give sufficient adhesion on the surface of grape leaves. After spraying, the liquid on the stem was air-dried, and a suspension of zoosporangiua of Plasmopara viticola (about 10,000 zoosporangiua were contained in 1 ml of the suspension) was inoculated by spraying. The amount of the sprayed suspension was about 2 ml for one plant. After inoculation, the plant was first grown for one day at 23° C. under 90% or more humidity, then further grown for 6 days in the green house, which was 24° C. in daytime and 20° C. in night-time.
Then, the areas of a lesion of the plants were obserbed. […]

Phytophthora infestans = assay type: in vivo; details: tomato (variety: Ponterosa), flowable diluted to 200 ppm, foliar spray before inoculation, observed after 1 day at 23° C. plus 4 days in green house; Test Example 2

**Q.** Which melting point does the source give for `C#CCOC(C(=O)Nc1cccnc1-c1ccc(OC)c(OC)c1)c1ccc(Cl)cc1` (stereo not drawn) [I-1, N-(2-(3,4-dimethoxyphenyl)pyridine-3-yl)-2-(2-propynyloxy)-2-(4-chlorophenyl)acetamide] here?
**A.** The melting point was 125.2 °C.

**Q.** For `COc1ccc(-c2ncccc2NC(=O)C(O)c2ccc(C)cc2)cc1OC` (stereo not drawn) [I-4, N-{2-(3,4-dimethoxyphenyl)pyridine-3-yl}-2-hydroxy-2-(4-methylphenyl)acetamide], which “lesion area on treated plants relative to the lesion area on a non-treatment plant” value (Plasmopara viticola) is on record?
**A.** The value was “not more than 10%”.

**Q.** For `COc1ccc(-c2ncccc2NC(=O)C(=C(Cl)Cl)c2ccc(Cl)cc2)cc1OC` [I-11, N-(2-(3,4-dimethoxyphenyl)-pyridine-3-yl)-2-(chlorophenyl)-3,3-dichloroacrylamide], which “lesion area on treated plants relative to the lesion area on a non-treatment plant” value (Phytophthora infestans) is on record?
**A.** Its value is “not more than 10%”.

Source: patent publication US20060041144A1 (priority 2002, published 2006)
